US11147801B2, “Methods of use for trisubstituted benzotriazole derivatives as dihydroorotate oxygenase inhibitors” (Aurigene Discovery Technologies Limited, priority 2017, dated 2021)

Experiments:
DLBCL_1 tumor = test: Patient-derived DLBCL xenograft model DLBCL_1 (triple hit); type: in vivo, CB17 SCID mice; details: 100 mg/kg BID PO
Description: A screen was next performed using a small number of mice/group to assess efficacy of Compound 1 in AML and DLBCL patient-derived xenograft models. Tumor-bearing mice (n=3/group) were treated with vehicle or Compound 1 at 100 mg/kg BID PO.

REC-1 = test: Heme line growth assay (Cell-Titer Glo), 4-day and extended 7-day; type: cell-based, human; design: key to Sensitivity 7-day: *: insensitive; **: intermediate; ***: sensitive
Description: (§1) A follow-up screen was performed on an expanded panel of cell lines of heme lineage in a 4-day growth assay. Growth was assessed by Cell-Titer Glo measurements on day 0 and day 4.
(§2) Compound 1, of which diffuse large B cell lymphoma (DLBCL) lines were particularly sensitive (8/11 or 73%). A subset of the heme lines that were of intermediate sensitivity (defined as >50% and <75% growth rate inhibition) or insensitive (defined as <50% growth rate inhibition) to compound 1 in this follow-up screen were subjected to extended growth assays to evaluate if increased treatment time modulated their sensitivity profile. Specifically, these heme lines were pretreated with Compound 1 for three days at the indicated concentrations and then re-plated for a standard 4-day growth assay in fresh media/drug.

AML-193 = test: as above; type: cell-based, human; design: key to Sensitivity 7-day: *: insensitive; **: intermediate; ***: sensitive
Description: as §1, §2

BDCM = test: as above; type: cell-based, human; design: key to Sensitivity 7-day: *: insensitive; **: intermediate; ***: sensitive
Description: as §1, §2

KG-1 = test: as above; type: cell-based, human; design: key to Sensitivity 7-day: *: insensitive; **: intermediate; ***: sensitive
Description: as §1, §2

U266B1 = test: as above; type: cell-based, human; design: key to Sensitivity 7-day: *: insensitive; **: intermediate; ***: sensitive
Description: as §1, §2

SUDHL4 = test: as above; type: cell-based, human; design: key to Sensitivity 7-day: *: insensitive; **: intermediate; ***: sensitive
Description: as §1, §2

LP1 = test: as above; type: cell-based, human; design: key to Sensitivity 7-day: *: insensitive; **: intermediate; ***: sensitive
Description: as §1, §2

MOLP-2 = test: as above; type: cell-based, human; design: key to Sensitivity 7-day: *: insensitive; **: intermediate; ***: sensitive
Description: as §1, §2

F36P = test: as above; type: cell-based, human; design: key to Sensitivity 7-day: *: insensitive; **: intermediate; ***: sensitive
Description: as §1, §2

TF1 = test: as above; type: cell-based, human; design: key to Sensitivity 7-day: *: insensitive; **: intermediate; ***: sensitive
Description: as §1, §2

THP-1 = test: as above; type: cell-based, human; design: key to Sensitivity 7-day: *: insensitive; **: intermediate; ***: sensitive
Description: as §1, §2

HuNS1 = test: as above; type: cell-based, human; design: key to Sensitivity 7-day: *: insensitive; **: intermediate; ***: sensitive
Description: as §1, §2

KMS12BM = test: as above; type: cell-based, human; design: key to Sensitivity 7-day: *: insensitive; **: intermediate; ***: sensitive
Description: as §1, §2

HEL = test: as above; type: cell-based, human; design: key to Sensitivity 7-day: *: insensitive; **: intermediate; ***: sensitive
Description: as §1, §2

DU4475 = test: Triple negative breast cancer cell line panel, 96 hours; type: cell-based, human; details: DU4475, 96 hours
Description: FIG. 10 is a curve showing the relative growth rate of the DU4475 triple negative breast cancer line treated with various concentrations of Compound 1 for 96 hours.
A panel of triple negative cancer cell lines (TNBC) were screened to evaluate whether a subset of TNBC could potentially benefit from treatment with compound 1 as a single agent.

DU145 = test: Tumor cell line panel screen, 72 hrs; type: cell-based; details: Homo sapiens, DU-145, DU145, prostate cancer
Description: (§3) A tumor cell line panel screen aimed at identifying tumor cell subsets that were particularly sensitive to inhibition of DHODH with Compound 1 was performed. Compound 1 is represented by the following structural formula: […]
(§4) These cell lines were treated with Compound 1 for a total of 72 hrs.
(§5) Table 1 is a list of some of the sensitive cell lines to Compound 1 along with GI50 values and max growth response. A maximum inhibition of 100 represents complete growth inhibition; a max inhibition value>100 represents cell killing.

JVM13 = test: Tumor cell line panel screen, 72 hrs; type: cell-based; details: Homo sapiens, JVM13, B-prolymphocytic leukemia
Description: as §3, §4, §5

CJM = test: Tumor cell line panel screen, 72 hrs; type: cell-based; details: Homo sapiens, melanoma
Description: as §3, §4, §5

SUDHL1 = test: Tumor cell line panel screen, 72 hrs; type: cell-based; details: Homo sapiens, SU-DHL-1, SUDHL1, anaplastic large cell lymphoma
Description: as §3, §4, §5

RL = test: Tumor cell line panel screen, 72 hrs; type: cell-based; details: Homo sapiens, non-Hodgkin's lymphoma
Description: as §3, §4, §5

SUM159PT = test: Tumor cell line panel screen, 72 hrs; type: cell-based; details: Homo sapiens, SUM-159-PT, triple negative breast cancer
Description: as §3, §4, §5

[1] = 3 days pretreatment then 4-day growth assay
[2] = acute myeloid leukemia, 4-day growth assay

Cc1ccccc1-c1ccc(-c2cc(C(=O)O)c3c(c2)nnn3C)cc1 [Compound 1, 1-methyl-5-(2′-methyl-[1,1′-biphenyl]-4-yl)-1H-benzo[d][1,2,3]triazole-7-carboxylic Acid]
** (intermediate): Sensitivity 4-day (AML-193; AML-193, acute myeloid leukemia, 4-day growth assay) | Sensitivity 4-day (BDCM; [2]) | Sensitivity 4-day (SUDHL4; SUDHL4, diffuse large B cell lymphoma, 4-day growth assay) | Sensitivity 4-day (MOLP-2; MOLP-2, multiple myeloma, 4-day growth assay) | Sensitivity 4-day (F36P; [2]) | Sensitivity 4-day (THP-1; THP-1, acute myeloid leukemia, 4-day growth assay) | Sensitivity 4-day (KMS12BM; multiple myeloma, 4-day growth assay) | Sensitivity 4-day (HEL; [2])
140 nM: GI50 (SUM159PT)
***: Sensitivity 7-day (REC-1; REC-1, 3 days pretreatment then 4-day growth assay) | Sensitivity 7-day (AML-193; AML-193, 3 days pretreatment then 4-day growth assay) | Sensitivity 7-day (BDCM; [1]) | Sensitivity 7-day (KG-1; KG-1, 3 days pretreatment then 4-day growth assay) | Sensitivity 7-day (U266B1; U266B1, 3 days pretreatment then 4-day growth assay) | Sensitivity 7-day (SUDHL4; SUDHL4, 3 days pretreatment then 4-day growth assay) | Sensitivity 7-day (LP1; LP1, 3 days pretreatment then 4-day growth assay) | Sensitivity 7-day (MOLP-2; MOLP-2, 3 days pretreatment then 4-day growth assay) | Sensitivity 7-day (F36P; [1]) | Sensitivity 7-day (TF1; TF1, 3 days pretreatment then 4-day growth assay) | Sensitivity 7-day (THP-1; THP-1, 3 days pretreatment then 4-day growth assay) | Sensitivity 7-day (HuNS1; HuNS1, 3 days pretreatment then 4-day growth assay) | Sensitivity 7-day (KMS12BM; [1]) | Sensitivity 7-day (HEL; [1])
* (insensitive): Sensitivity 4-day (REC-1; REC-1, mantle cell lymphoma, 4-day growth assay) | Sensitivity 4-day (KG-1; KG-1, acute myeloid leukemia, 4-day growth assay) | Sensitivity 4-day (U266B1; U266B1, multiple myeloma, 4-day growth assay) | Sensitivity 4-day (LP1; LP1, multiple myeloma, 4-day growth assay) | Sensitivity 4-day (TF1; TF1, acute myeloid leukemia, 4-day growth assay) | Sensitivity 4-day (HuNS1; HuNS1, multiple myeloma, 4-day growth assay)
robustly impaired cell viability/growth: Cell viability/growth (DU4475)
40 nM: GI50 (SUDHL1)
> 60%: TGI (DLBCL_1 tumor)
620 nM: GI50 (CJM)
20 nM: GI50 (JVM13)
480 nM: GI50 (DU145)
80 nM: GI50 (RL)
